Results from article PMC13091788 (NPJ Aging, 2026).
Like-named read-outs stand apart in the source and are kept apart here.

What was measured:
[1] = tested on: MITOL and mitochondrial proteins in C2C12 myoblasts; assay: Western blot of mitochondrial proteins in C2C12 myoblasts; assay type: cell-based, mouse; settings: 48 h; for levels of Tom20, Mfn2, HSP60 and ATP5a proteins / protein level of MITOL: C2C12, 5 μM or 10 μM
Experimental: Murine myoblast C2C12 cells were used for various cellular experiments in this study. Two different sources of C2C12 cells were used depending on the experiment: C2C12 cells obtained from RIKEN BRC (RCB0987) were used for gene expression, mtDNA quantification, and mitochondrial morphology analysis; C2C12 cells from ATCC (CRL-1772) were used for OCR analysis. Cells were cultured in Dulbecco’s Modified Eagle Medium (DMEM; Sigma-Aldrich or Nacalai Tesque), supplemented with 10% FBS and 1% penicillin–streptomycin. Cells were maintained in a humidified incubator at 37°C with 5% CO2.
For cellular experiments, berberine or quinoid-type berberrubine (Q-BRB) was dissolved in DMSO, and berberrubine acetic acid adduct (AcA-BRB) was dissolved in distilled H2O. Each compound was diluted in culture medium to the indicated final concentrations.
Proteins in sample buffer were separated by SDS-PAGE and transferred to Immobilon-P PVDF membranes (IPVH00010, Millipore). Blots were probed with the indicated antibodies, and protein bands on the blot were visualized using Chemi-Lumi One L (07880-70, Nacalai Tesque) or Immobilon Western Chemiluminescent HRP Substrate (WBKLS0500, Millipore). Band images were captured using a LuminoGraph I imager (WSE-6100, ATTO). Relative band intensities were quantified using Fiji/ImageJ software. Unprocessed western blot images corresponding to the data presented in the main and supplementary figures are provided in Supplementary Figures 11–16.

[2] = Water solubility, roughly examined; assay type: physicochemical
Experimental: Finally, we compared the water solubility of the three berberrubine forms. The solubility of three compounds, the reddish-black solid (quinoid-type berberrubine), the reddish-brown solid (berberrubine acetic acid salt), and the yellow solid (berberrubine acetic acid adduct), in water was roughly examined. […] On the other hand, the reddish-brown solid dissolved in about 30 mg in 1 mL of water.

[3] = Hepatic microsomal stability assay, human; assay type: in vitro ADME; settings: CLint, 1 μM, 0.2 mg/mL microsomes, NADPH, 30 min
Experimental: Disappearance of the parent compound over time was measured by using the amount of drug at time zero as a reference. After 5 min of preincubation, 1 mM NADPH (final concentration; the same applies to the following) was added to a mixture containing 1 μM of the compound, 0.2 mg/mL of human or mouse liver microsomes (Sekisui XenoTech), 1 mM EDTA and 0.1 M phosphate buffer (pH 7.4). The mixture solution was incubated at 37 °C for 30 min with rotation at 60 rpm. An aliquot of 50 μL of the incubation mixture was added to 250 μL of chilled acetonitrile/internal standard (IS, methyltestosterone). After centrifugation at 3150 × g for 15 min at 4 °C, the supernatants were analyzed by LC-MS/MS. Hepatic microsomal stability (mL/min/kg, CLint) was calculated according to a previous report, using 48.8 (human) or 45.4 (mouse) mg MS protein/g liver and 25.7 (human) or 87.5 (mouse) g liver/kg body weight as scaling factors. Two technical replicates were performed.

[4] = In vivo pharmacokinetics, single oral dose; set-up: species or system mouse; settings: mice; for AUC(0-inf) / Cmax / Tmax / half-life / CL/F: male, C57BL/6 N, mouse, plasma; for CL/F: read-out: CLtot/F; for time to reach maximum plasma concentration (Cmax): oral, both 10 mg/kg and 100 mg/kg
Experimental: All mouse experiments were approved by and conducted in accordance with the guidelines of the Animal Experiment Committee of the University of Tokyo (permission number: P29-24). The compounds were suspended in 0.5% methylcellulose and orally administered to 8-week-old male C57BL/6 N mice (Oriental Yeast) following an overnight fast. The dosage of the compound was 10 or 100 mg/10 mL/kg. Serial blood samples ( < 50 μL per time point) were collected from the caudal vein of each mouse at 15 and 30 min, and at 1, 2, 4, 6 and 24 h post-dose using EM MYSTAR Hematocrit Capillary treated with heparin (AS ONE). Plasma was obtained by centrifugation of the blood samples. After the final blood sampling at 24 h, the mice were humanely euthanized.
Before pharmacokinetic analyses, plasma concentrations were averaged at each time point. Concentrations below the limit of quantitation were excluded from the analysis. Pharmacokinetic analyses were conducted using PhoenixWinNonlin version 8.3 (Pharsight Corp). The maximum plasma concentrations (Cmax) and times to achieve maximum plasma concentrations (Tmax) were obtained directly from the plasma concentration-time curves. The area under the concentration-time curve from zero to infinity (AUC∞) was obtained using the linear trapezoidal method in the noncompartmental analysis module. The software was allowed to determine the best-fit line for the elimination slope for all calculations. Other parameters such as elimination half-life period (t1/2), the apparent total body clearance CLtot/F, and volume of distribution Vdz/F were further calculated.
(§1) An LCMS-8060 instrument equipped with a Shimadzu Nexera series LC system (Shimadzu) was used. Berberrubine and IS were analyzed in multiple reaction monitoring mode under electronspray ionization conditions. The analytical column used was a CAPCELL PAK C18 MGIII (3 μm × 2.0 mm ID × 35 mm; OSAKA SODA) at 50 °C. The gradient mobile phase consisted of 0.1% formic acid in water (mobile phase A) and 0.1% formic acid in acetonitrile (mobile phase B) at a total flow rate of 1 mL/min. The initial mobile phase composition was 10% B, which was held constant for 0.5 min, increased in a linear fashion to 90% B over 1 min, then held constant for 0.8 min, and finally brought back to the initial condition of 10% B over 0.01 min and reequilibrated for 1 min. The transitions (precursor ion > product ion) of berberrubine and IS (methyl testosterone) are 322.11 > 307.1 and 303.1 > 109.1 (positive), respectively.

[5] = Repeated oral administration: plasma concentration and tissue distribution; assay type: in vivo, mouse; settings: mice, 7 days
Experimental: In the repeated administration study, animals were treated according to the group allocations as described in the main text and corresponding to Supplementary Figure 2d. Compounds were administered orally either via drinking water or mixed feed for 7 or 28 days, and plasma, brain, heart, and skeletal muscle samples were collected at the final time point (8:00–10:00 a.m.) on the day of sacrifice (n = 4 per group). Blood was drawn from the abdominal vena cava under terminal anesthesia and plasma was separated by centrifugation using heparinized tubes. Tissue samples were homogenized with four volumes of phosphate-buffered saline. Plasma and tissue homogenate samples were precipitated with acetonitrile containing an internal standard (IS) at a volume fourfold or greater than that of the sample, and then centrifuged at 15,000 × g for 10 min at 4 °C. The resulting supernatants were analyzed by LC-MS/MS.
as §1

[6] = 2 mg/mL AcA-BRB in drinking water

SMILES | levels of Tom20, Mfn2, HSP60 and ATP5a proteins [1] | protein level of MITOL [1] | Liver microsomal metabolic stability human (pH7.4) [3] [mL/min/kg] | AUC(0-inf) ([4]; single oral gavage 10 mg/kg) [ng·h/mL] | Cmax ([4]; single oral gavage 10 mg/kg) [ng/mL] | Tmax ([4]; single oral gavage 10 mg/kg) [min] | half-life ([4]; single oral gavage 10 mg/kg) [min] | CL/F ([4]; single oral gavage 10 mg/kg) [mL/min/kg] | AUC(0-inf) ([4]; single oral gavage 100 mg/kg) [ng·h/mL] | Cmax ([4]; single oral gavage 100 mg/kg) [ng/mL] | Tmax ([4]; single oral gavage 100 mg/kg) [min] | half-life ([4]; single oral gavage 100 mg/kg) [min] | CL/F ([4]; single oral gavage 100 mg/kg) [mL/min/kg] | time to reach maximum plasma concentration (Cmax) [4] [h] | Vdz/F ([4]; single oral gavage 10 mg/kg) [L/kg] | Vdz/F ([4]; single oral gavage 100 mg/kg) [L/kg] | dissolution in 1000 mL of water [2] | other results
COc1ccc2cc3[n+](cc2c1O)CCc1cc2c(cc1-3)OCO2 [AcA-BRB, berberrubine acetic acid adduct] | dose-dependent trend in elevating | significantly increased | < 22.0 | 95.7 | 101 | 15 | 101 | 1740 | 2130 | 3060 | 15 | 259 | 783 | ≤ 0.25 | 253 | 292 | – | solubility ([2]; roughly examined): ≥ 1000 mg/mL; plasma berberrubine concentration compared to all other groups ([5]; 2 mg/mL in drinking water): significantly higher
COc1ccc2cc3n(cc-2c1=O)CCc1cc2c(cc1-3)OCO2 [Q-BRB, quinoid-type berberrubine] | dose-dependent trend in elevating | significantly increased | < 22.0 | 76.5 | 126 | 15 | 89.4 | 2180 | 5110 | 8340 | 15 | 299 | 326 | ≤ 0.25 | 281 | 141 | not possible to observe any dissolution | –
COc1ccc2cc3[n+](cc2c1O)CCc1cc2c(cc1-3)OCO2 [berberrubine] | – | – | – | – | – | – | – | – | – | – | – | – | – | – | – | – | did not dissolve | MITOL expression (western blot) ([1]; C2C12, 10 μM, berberrubine used as quinoid-type form): significantly upregulated; expression of other mitochondrial-associated proteins (Tom20, Mfn2, HSP60, ATP5a) ([1]; C2C12, 10 μM, quinoid-type form): markedly increased; protein levels of OPA1, Fis1 and MFF ([1]; C2C12, Q-BRB or AcA-BRB 10 μM): increased; berberrubine concentration in the heart compared to other tissues [5, 6]: tendency toward higher concentrations; berberrubine level in the brain [5, 6]: exceptionally low
